These results are taken from ChEMBL document CHEMBL1140089 (J Med Chem, 2008).

The target in this assay is MAP kinase-activated protein kinase 2 (Homo sapiens, UniProt P49137). In words: Inhibition of human recombinant MK2 expressed in Escherichia coli BL21(DE3) after 60 mins.

Where only a bound is given, the exact number is not on record here.

Sequence of MAP kinase-activated protein kinase 2 (P49137 whole entry): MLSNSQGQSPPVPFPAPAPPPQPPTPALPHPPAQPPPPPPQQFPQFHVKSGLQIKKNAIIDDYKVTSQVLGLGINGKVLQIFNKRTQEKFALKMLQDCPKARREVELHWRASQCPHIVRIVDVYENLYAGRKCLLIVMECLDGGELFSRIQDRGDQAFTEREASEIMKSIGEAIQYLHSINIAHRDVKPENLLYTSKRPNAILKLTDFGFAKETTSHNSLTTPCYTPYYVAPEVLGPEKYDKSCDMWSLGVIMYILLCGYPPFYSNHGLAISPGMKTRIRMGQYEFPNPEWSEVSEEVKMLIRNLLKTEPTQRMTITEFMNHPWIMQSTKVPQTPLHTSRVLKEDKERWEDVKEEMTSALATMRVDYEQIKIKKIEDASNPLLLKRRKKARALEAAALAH

On to `Oc1cccc2ccccc12` [1-NAPHTHOL], for which the IC50 was greater than 100 µM.

For the compound `Oc1cccc2cnccc12`, the IC50 amounted to 85 µM.

For orientation: IC50 means the concentration needed to halve the response being measured.
